Results published in ChEMBL document CHEMBL4342426, “Structure-activity relationship of 4-azaindole-2-piperidine derivatives as agents against Trypanosoma cruzi” (Bioorg Med Chem Lett, 2020).

Key:
[1] = cells; settings: Homo sapiens, MRC-5 SV2, 72 h
Description: (§1) Cytotoxicity against human MRC5 SV2 cells assessed as reduction in cell viability incubated for 3 days by fluorimetry

[2] = tested on: Macrophage; test: cells; settings: Mus musculus, 72 h
Description: (§2) Cytotoxicity against mouse peritoneal Macrophage cells assessed as reduction in cell viability incubated for 3 days by fluorimetry

[3] = in vitro; settings: human, MRC5 SV2 cells
Description: as §1

[4] = in vitro; settings: human, MRC5 SV2 cells; remark: listed apart in the source
Description: Selectivity index, ratio of IC50 for human MRC5 SV2 cells to IC50 for Trypanosoma cruzi Tulahuen CL2 amastigotes infected in human MRC5 SV2 cells

[5] = in vitro; settings: mouse, peritoneal macrophages
Description: as §2

[6] = in vitro; settings: human, MRC5 SV2 cells; remark: listed apart in the source
Description: Selectivity index, ratio of IC50 for human MRC5 SV2 cells to IC50 for Trypanosoma brucei rhodesiense STIB900 trypomastigotes

[7] = tested on: Trypanosoma cruzi; test: microbe, parasite or virus in culture; settings: Tulahuen CL2, MRC-5 SV2, 168 h
Description: Antitrypanosomal activity against Trypanosoma cruzi Tulahuen CL2 amastigotes infected in human MRC5 SV2 cells incubated for 7 days by chlorophenol red beta-D-galactopyranoside substrate based spectrophotometric assay

[8] = tested on: Trypanosoma brucei; test: microbe, parasite or virus in culture; settings: Squib 427, 72 h
Description: Antitrypanosomal activity against Trypanosoma brucei Squib 427 assessed as reduction in parasite growth incubated for 72 hrs by resazurin dye based fluorimetric analysis

[9] = tested on: Trypanosoma brucei rhodesiense; test: microbe, parasite or virus in culture; settings: STIB900, 72 h
Description: Antiprotozoal activity against Trypanosoma brucei rhodesiense STIB900 trypomastigotes incubated for 72 hrs by resazurin dye based fluorimetric analysis

[10] = tested on: Leishmania infantum; test: microbe, parasite or virus in culture; settings: for IC50: MHOM/MA(BE)/67/ITMAP263, 120 h; for IC90: MHOM/MA(BE)/67/ITMAP263, in Mus musculus, 120 h
Description: Antileishmanial activity against amastigote stage of Leishmania infantum MHOM/MA(BE)/67/ITMAP263 infected in mouse peritoneal macrophage assessed as parasite growth inhibition incubated for 5 days by Giemsa staining based assay

[11] = in vitro; settings: human, liver microsomes
Description: Metabolic stability in human liver microsomes assessed as intrinsic clearance at 0.5 uM incubated for 30 mins by LC-MS/MS analysis

[12] = in vitro; settings: mouse, liver microsomes
Description: Metabolic stability in mouse liver microsomes assessed as intrinsic clearance at 0.5 uM incubated for 30 mins by LC-MS/MS analysis

[13] = physchem; settings: buffer, pH 7.4
Description: Lipophilicity, logD of compound at pH 7.4 by HPLC analysis

[14] = in vitro; settings: PAMPA
Description: Effective permeability of compound by PAMPA assay

[15] = in vitro; settings: mouse, liver microsomes; remark: listed apart in the source
Description: Metabolic stability in mouse liver microsomes assessed as fraction unbound at 0.5 uM incubated for 30 mins by LC-MS/MS analysis

CC(C)c1cc(C(=O)N2CCCC(O)(c3cc4ncccc4n3S(=O)(=O)c3ccccc3)C2)on1 (stereo not drawn)
IC50 [1]: 64 µM | IC50 [2]: 64 µM | IC90 at 72 h [3]: 64 µM | selectivity ratio [4]: 1.26 | IC90 at 72 h [5]: 64 µM | selectivity ratio [6]: 1.8 | IC50 [7]: 51.3 µM | IC90 [7]: 64 µM | IC50 [8]: 51.1 µM | IC90 [8]: 64 µM | IC50 [9]: 35.4 µM | IC90 [9]: 64 µM | IC50 [10]: 64 µM | IC90 [10]: 64 µM

O=C(Nc1ccc(-c2cc3ncccc3[nH]2)cc1)c1ccccc1
IC50 [1]: 64 µM | IC50 [2]: 45.3 µM | IC90 at 72 h [3]: 64 µM | CLint scaled at 0.5 h, 0.5 µM [11]: ≥ 105 mL/min/kg | microsomal CLint at 0.5 h, 0.5 µM [11]: 97.5 µL/min/mg | CLint scaled at 0.5 h, 0.5 µM [12]: ≥ 597 mL/min/kg | microsomal CLint at 0.5 h, 0.5 µM [12]: 187 µL/min/mg | logD [13]: 3.86 | selectivity ratio [4]: 2.54 | IC90 at 72 h [5]: 59.7 µM | selectivity ratio [6]: 1.45 | Papp [14]: 0.545 ×10⁻⁶ cm/s | IC50 [7]: 25.2 µM | IC90 [7]: 64 µM | IC50 [8]: 64 µM | IC90 [8]: 64 µM | IC50 [9]: 44.6 µM | IC90 [9]: 64 µM | IC50 [10]: 45.6 µM | IC90 [10]: 60.5 µM

O=C(c1ccc(F)cc1)N1CCCC(c2cc3nc(Cl)ccc3[nH]2)C1 (stereo not drawn)
IC50 [1]: 64 µM | IC50 [2]: 64 µM | IC90 at 72 h [3]: 64 µM | CLint scaled at 0.5 h, 0.5 µM [11]: 125 mL/min/kg | microsomal CLint at 0.5 h, 0.5 µM [11]: 78.4 µL/min/mg | CLint scaled at 0.5 h, 0.5 µM [12]: 1390 mL/min/kg | microsomal CLint at 0.5 h, 0.5 µM [12]: 294 µL/min/mg | logD [13]: 3.52 | IC90 at 72 h [5]: 64 µM | selectivity ratio [6]: 26 | Papp [14]: 15 ×10⁻⁶ cm/s | fraction unbound at 0.5 h, 0.5 µM [15]: 0.676 | IC50 [7]: 64 µM | IC90 [7]: 64 µM | IC50 [8]: 64 µM | IC90 [8]: 64 µM | IC50 [9]: 2.46 µM | IC90 [9]: 15.1 µM | IC50 [10]: 64 µM | IC90 [10]: 64 µM

COc1cccc2[nH]c(C(=O)N3CCCC(c4cc5ncccc5[nH]4)C3)cc12 (stereo not drawn)
IC50 [1]: 32 µM | IC50 [2]: 32 µM | IC90 at 72 h [3]: 32 µM | selectivity ratio [4]: 29.4 | IC90 at 72 h [5]: 32 µM | selectivity ratio [6]: 5.44 | IC50 [7]: 1.09 µM | IC90 [7]: 5.34 µM | IC50 [8]: 32 µM | IC90 [8]: 32 µM | IC50 [9]: 5.88 µM | IC90 [9]: 23.4 µM | IC50 [10]: 24.7 µM | IC90 [10]: 32 µM

O=C(c1ccccc1)N1CCCC(c2cc3ncccc3[nH]2)C1 (stereo not drawn)
IC50 [1]: 64 µM | IC50 [2]: 64 µM | IC90 at 72 h [3]: 64 µM | CLint scaled at 0.5 h, 0.5 µM [11]: 38.8 mL/min/kg | microsomal CLint at 0.5 h, 0.5 µM [11]: 24.7 µL/min/mg | CLint scaled at 0.5 h, 0.5 µM [12]: 2360 mL/min/kg | microsomal CLint at 0.5 h, 0.5 µM [12]: 508 µL/min/mg | logD [13]: 2.68 | selectivity ratio [4]: 7.13 to 7.5 | IC90 at 72 h [5]: 64 µM | selectivity ratio [6]: 1.7 | Papp [14]: 2.88 ×10⁻⁶ cm/s | IC50 [7]: 8.5 to 9.02 µM | IC90 [7]: 31.1 to 45.3 µM | IC50 [8]: 64 µM | IC90 [8]: 64 µM | IC50 [9]: 38.3 to 64 µM | IC90 [9]: 64 µM | IC50 [10]: 64 µM | IC90 [10]: 64 µM

O=C(c1ccc(F)cc1)N1CCCC(c2cc3nc(C(F)(F)F)ccc3[nH]2)C1 (stereo not drawn)
IC50 [1]: 64 µM | IC50 [2]: 64 µM | IC90 at 72 h [3]: 64 µM | CLint scaled at 0.5 h, 0.5 µM [11]: 118 mL/min/kg | microsomal CLint at 0.5 h, 0.5 µM [11]: 77.6 µL/min/mg | CLint scaled at 0.5 h, 0.5 µM [12]: 1110 mL/min/kg | microsomal CLint at 0.5 h, 0.5 µM [12]: 247 µL/min/mg | logD [13]: 3.88 | IC90 at 72 h [5]: 64 µM | selectivity ratio [6]: 2.19 | Papp [14]: 12.2 ×10⁻⁶ cm/s | fraction unbound at 0.5 h, 0.5 µM [15]: 0.713 | IC50 [7]: 64 µM | IC90 [7]: 64 µM | IC50 [8]: 64 µM | IC90 [8]: 64 µM | IC50 [9]: 28.7 µM | IC90 [9]: 57.5 µM | IC50 [10]: 64 µM | IC90 [10]: 64 µM

CCN(CCc1nc2ncc(Cl)cc2[nH]1)C(=O)c1ccc(F)cc1
IC50 [1]: 64 µM | IC50 [2]: 64 µM | IC90 at 72 h [3]: 64 µM | CLint scaled at 0.5 h, 0.5 µM [11]: < 31.7 mL/min/kg | microsomal CLint at 0.5 h, 0.5 µM [11]: < 23 µL/min/mg | CLint scaled at 0.5 h, 0.5 µM [12]: 439 mL/min/kg | microsomal CLint at 0.5 h, 0.5 µM [12]: 108 µL/min/mg | logD [13]: 2.79 | IC90 at 72 h [5]: 64 µM | selectivity ratio [6]: 2.1 | Papp [14]: 11.4 ×10⁻⁶ cm/s | IC50 [7]: 64 µM | IC90 [7]: 64 µM | IC50 [8]: 64 µM | IC90 [8]: 64 µM | IC50 [9]: 30.3 µM | IC90 [9]: 57.6 µM | IC50 [10]: 64 µM | IC90 [10]: 64 µM

O=C(c1ccc(F)cc1)N1CCCC(c2cc3ncccc3[nH]2)C1 (stereo not drawn)
IC50 [1]: 64 µM | IC50 [2]: 64 µM | IC90 at 72 h [3]: 64 µM | CLint scaled at 0.5 h, 0.5 µM [11]: 41.3 mL/min/kg | microsomal CLint at 0.5 h, 0.5 µM [11]: 38.3 µL/min/mg | CLint scaled at 0.5 h, 0.5 µM [12]: 1080 mL/min/kg | microsomal CLint at 0.5 h, 0.5 µM [12]: 337 µL/min/mg | logD [13]: 2.86 | selectivity ratio [4]: 6.38 | IC90 at 72 h [5]: 64 µM | selectivity ratio [6]: 1.98 | Papp [14]: 0.625 ×10⁻⁶ cm/s | IC50 [7]: 10 µM | IC90 [7]: 44.1 µM | IC50 [8]: 64 µM | IC90 [8]: 64 µM | IC50 [9]: 32.8 µM | IC90 [9]: 60.7 µM | IC50 [10]: 64 µM | IC90 [10]: 64 µM

O=C(c1ccccc1)N1CC=C(c2cc3ncccc3[nH]2)CC1
IC50 [1]: 64 µM | IC50 [2]: 64 µM | IC90 at 72 h [3]: 64 µM | CLint scaled at 0.5 h, 0.5 µM [11]: < 33.3 mL/min/kg | microsomal CLint at 0.5 h, 0.5 µM [11]: < 23 µL/min/mg | CLint scaled at 0.5 h, 0.5 µM [12]: 1310 mL/min/kg | microsomal CLint at 0.5 h, 0.5 µM [12]: 305 µL/min/mg | logD [13]: 2.89 | selectivity ratio [4]: 26.8 | IC90 at 72 h [5]: 64 µM | selectivity ratio [6]: 2.1 | Papp [14]: 1.65 ×10⁻⁶ cm/s | IC50 [7]: 2.39 µM | IC90 [7]: 12.3 µM | IC50 [8]: 64 µM | IC90 [8]: 64 µM | IC50 [9]: 30.3 µM | IC90 [9]: 64 µM | IC50 [10]: 24.7 µM | IC90 [10]: 46.1 µM

COc1ccc(Cl)cc1C(=O)N1CCCC(c2cc3ncccc3[nH]2)C1 (stereo not drawn)
IC50 [1]: 32 µM | IC50 [2]: 32 µM | IC90 at 72 h [3]: 32 µM | CLint scaled at 0.5 h, 0.5 µM [11]: 207 mL/min/kg | CLint scaled at 0.5 h, 0.5 µM [12]: 10300 mL/min/kg | selectivity ratio [4]: 8.54 | IC90 at 72 h [5]: 32 µM | selectivity ratio [6]: 1.79 | IC50 [7]: 3.75 µM | IC90 [7]: 7.59 µM | IC50 [8]: 32 µM | IC90 [8]: 32 µM | IC50 [9]: 17.8 µM | IC90 [9]: 32 µM | IC50 [10]: 28.5 µM | IC90 [10]: 32 µM

O=C(Nc1cccc(-c2cc3ncccc3[nH]2)c1)c1ccccc1
IC50 [1]: 64 µM | IC50 [2]: 64 µM | IC90 at 72 h [3]: 64 µM | CLint scaled at 0.5 h, 0.5 µM [11]: ≥ 392 mL/min/kg | microsomal CLint at 0.5 h, 0.5 µM [11]: 363 µL/min/mg | CLint scaled at 0.5 h, 0.5 µM [12]: ≥ 1670 mL/min/kg | microsomal CLint at 0.5 h, 0.5 µM [12]: 522 µL/min/mg | logD [13]: 3.88 | selectivity ratio [4]: 30.7 | IC90 at 72 h [5]: 64 µM | selectivity ratio [6]: 13.9 | Papp [14]: 0.606 ×10⁻⁶ cm/s | IC50 [7]: 2.08 µM | IC90 [7]: 3.8 µM | IC50 [8]: 64 µM | IC90 [8]: 64 µM | IC50 [9]: 4.6 µM | IC90 [9]: 23.7 µM | IC50 [10]: 52.5 µM | IC90 [10]: 64 µM
